# According to patent publication US6730792B2, “β3 adrenergic agonists” (Eli Lilly and Company, priority 2000, dated 2004):
# Target: T1, human β3 adrenergic receptor (Homo sapiens, UniProt P13945)
# T1 construct: expressed in transfected cells; host or cells: DXB-11 Chinese hamster ovary (CHO) cell line, stably transfected (phd expression vector)
# Test: whole cell receptor coupled c-AMP assay, human β3 receptor in CHO cells (EC50, Emax relative to isoproterenol)
# Format: cell-based
# Settings: % intrinsic activity relative to isoproterenol maximal response; average of at least 3 runs; c-AMP in transfected CHO cells
# Description: The genes encoding the human β1-adrenergic receptor (Frielle et al., Proc. Natl. Acad. Sci., 84:7920-7924, 1987), the human β2-adrenergic receptor (Kobika et al., Proc. Natl. Acad. Sci., 84:46-50, 1987, Emorine et al., Proc. Natl. Acad. Sci., 84:6995-6999, 1987) and the human β3 adrenergic receptor (Granneman et al., Molecular Pharmacology, 44(2):264-70, 1993) are individually subcloned into a phd expression vector (Grinnell et al., Bio/Technology, 5:1189-1192, 1987) and transfected into the DXB-11 Chinese hamster ovary (CHO) cell line by calcium phosphate precipitation methodology. The stably transfected cells are grown to 95% confluency in 95% Dulbecco's modified Eagles Medium (DMEM), 5% fetal bovine serum and 0.01% proline. Media is removed and the cells are washed with phosphate buffered (pH 7.4) saline (without magnesium and calcium). Cells are then lifted using an enzyme free cell dissociation solution (Specialty Media, Lavallette, N.J.) and pelleted by centrifugation.
# Cells from each of the above cell lines are resuspended and added (20,000/well) to a 96-well plate. Cells are incubated at 37° C. with representative compounds of the invention for 20 minutes in buffer (Hank's balanced salt solution, 10 mM HEPES, 0.1% BSA, 1 mM L-ascorbic acid, 0.2% dimethyl sulfoxide, 1 mm 3-isobutyl-1-methylxanthine, pH 7.4). After halting the incubation with quench buffer (50 mM Na Acetate, 0.25% Triton X-100, pH 5.8), the c-AMP level is quantified by scintillation proximity assay (SPA) using a modification of the commercially available c-AMP kit (Amersham, Arlington Heights, Ill.) with rabbit anti-cAMP antibody (ICN Biomedicals, Aurora, Ohio) for the kit.
# Sigmoidal dose response curves, from the whole cell receptor coupled c-AMP assay are fit to a four parameter logistic equation using non linear regression: y=(a−d)/(1+(Dose/c)^b)+d where a and d are responses at zero and maximal dose, b is the slope factor and c is the EC50 as previously described (DeLean et al., Am. J. Physiol., 235, E97-E102, 1978). EC50 is assessed as the concentration producing 50% of the maximum response to each agonist.
# Isoproterenol is accepted in the art as a non-selective β3 agonist and is widely used as a comparator in evaluating the activity of compounds. See Trends in Pharm. Sci., 15:3, 1994. The % intrinsic activity (Emax) of representative compounds of the invention is assessed relative to isoproterenol by the compound's maximal response divided by the isoproterenol maximal response times 100.
# T1 sequence (P13945 whole entry): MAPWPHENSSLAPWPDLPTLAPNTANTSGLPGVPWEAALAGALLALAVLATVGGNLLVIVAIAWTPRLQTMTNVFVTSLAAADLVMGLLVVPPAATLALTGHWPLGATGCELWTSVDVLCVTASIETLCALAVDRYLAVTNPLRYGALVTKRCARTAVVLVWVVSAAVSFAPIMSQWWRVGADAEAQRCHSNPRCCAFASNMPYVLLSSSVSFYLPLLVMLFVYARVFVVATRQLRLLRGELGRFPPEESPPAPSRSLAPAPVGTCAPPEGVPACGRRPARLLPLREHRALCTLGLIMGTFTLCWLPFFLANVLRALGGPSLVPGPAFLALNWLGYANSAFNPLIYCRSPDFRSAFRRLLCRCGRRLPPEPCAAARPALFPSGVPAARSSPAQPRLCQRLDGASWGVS
row,Emax (%) ± SEM,SMILES
1,75.0 ± 9.6%,CC(=O)c1ccc(-c2cccc(F)c2OC[C@@H](O)CNC(C)(C)Cc2ccc(Oc3ncccc3C#N)cc2)s1.O=C(O)C(F)(F)F [Example 439]
2,73.4 ± 4.4%,CC(C)(Cc1ccc(Oc2ncccc2C#N)cc1)NC[C@H](O)COc1c(F)cccc1-c1ccco1.Cl [Example 440]
3,74.4 ± 6.5%,CC(C)(Cc1ccc(Oc2ncccc2C(N)=O)cc1)NC[C@H](O)COc1ccccc1-c1ccc(Cl)s1.Cl [Example 418]
4,80.6 ± 5.7%,CC(=O)c1ccc(-c2ccccc2OC[C@@H](O)CNC(C)(C)Cc2ccc(Oc3ncccc3C#N)cc2)s1.O=C(O)C(F)(F)F [Example 415]
5,37.7 ± 1.6%,CC(C)(Cc1ccc(Oc2ccc(C(N)=O)cn2)cc1)NC[C@H](O)COc1ccccc1-c1ccsc1 [Example 379]
6,72.0 ± 10.5%,Cc1ccc(-c2cccc(F)c2OC[C@@H](O)CNC(C)(C)Cc2ccc(Oc3ncccc3C#N)cc2)s1.Cl [Example 437]
7,33.0 ± 4.2%,CC(C)(Cc1ccc(Oc2ccc(S(C)(=O)=O)cc2)cc1)NC[C@H](O)COc1ccccc1-c1ccncc1.Cl.Cl [Example 377]
8,74.0 ± 6.5%,CC(C)(Cc1ccc(Oc2ccc(C#N)cn2)cc1)NC[C@H](O)COc1ccccc1-c1ccco1.Cl [Example 408]
9,71.3 ± 3.9%,Cc1ccc(-c2ccccc2OC[C@@H](O)CNC(C)(C)Cc2ccc(Oc3ccc(C(N)=O)cn3)cc2)s1.Cl [Example 409]
10,57.4 ± 4.1%,CC(C)(Cc1ccc(Oc2ncccc2C#N)cc1)NC[C@H](O)COc1ccccc1-c1ccsc1 [Example 380]
11,43.1 ± 4.3%,CC(C)(Cc1ccc(Oc2ccc(C(N)=O)cn2)cc1)NC[C@H](O)COc1ccccc1-c1cc2ccccc2s1 [Example 385]

# Same assay, conditions: Emax ± SEM; average of at least 3 runs except as otherwise indicated; tested as the isolated form listed
row,Emax (%) ± SEM,SMILES
1,55.9 ± 2.8%,CC(C)(Cc1ccc(Oc2ccc(C#N)o2)cc1)NC[C@H](O)COc1ccccc1-c1nccs1.O=C(O)C(F)(F)F [Example 330]
2,69.2 ± 1.2%,CC(C)(Cc1ccc(Oc2ccccc2C(N)=O)cc1)NC[C@H](O)COc1ccccc1-c1ccon1.Cl [Example 301]
3,57.4 ± 6.5%,CC(C)(Cc1ccc(Oc2ccc(C#N)s2)cc1)NC[C@H](O)COc1ccccc1-c1nccs1.O=C(O)C(F)(F)F [Example 328]
4,60.2 ± 3.0%,CC(C)(Cc1ccc(Oc2ccc(C(N)=O)s2)cc1)NC[C@H](O)COc1ccccc1-c1nccs1.O=C(O)C(F)(F)F [Example 329]

# Same assay, conditions: Emax ± standard error of the mean; average of at least 3 runs except where n = 1; compound tested in the isolated form listed
row,Emax (%) ± SEM,SMILES
1,57.3 ± 3.5%,CC(C)(Cc1ccc(Oc2ccc(Cl)cn2)cc1)NC[C@H](O)COc1ccccc1-c1cccs1.O=C(O)C(F)(F)F [Example 167]
2,58.1 ± 2.6%,CC(C)(Cc1ccc(Oc2ccccn2)cc1)NC[C@H](O)COc1ccccc1-c1cccs1.O=C(O)C(F)(F)F [Example 1]
3,52.4 ± 6.9%,CC(C)(Cc1ccc(Oc2ncccc2Cl)cc1)NC[C@H](O)COc1ccccc1-c1ccno1.O=C(O)C(F)(F)F [Example 180]
4,60.3 ± 3.9%,CCOC(=O)c1cccnc1Oc1ccc(CC(C)(C)NC[C@H](O)COc2ccccc2-c2ccno2)cc1 [Example 110]
5,73.1 ± 3.8%,CC(C)(Cc1ccc(Oc2ncccn2)cc1)NC[C@H](O)COc1ccccc1-c1nccs1.O=C(O)C(F)(F)F [Example 151]
6,38.4 ± 3.8%,CC(C)(Cc1ccc(Oc2ccc(C(N)=O)cc2F)cc1)NC[C@H](O)COc1ccccc1-c1cscn1.Cl [Example 252]
7,30.3 ± 5.1%,CC(C)(Cc1ccc(Oc2ncccc2C(N)=O)cc1)NC[C@H](O)COc1ccccc1N1CCOCC1.Cl.Cl [Example 78]
8,48.3 ± 9.9%,COC(=O)c1ccc(Oc2ccc(CC(C)(C)NC[C@H](O)COc3ccccc3-c3ccno3)cc2)c(Cl)c1 [Example 141]
9,17.5 n = 1%,CC(C)(Cc1ccc(Oc2ccc(C(N)=O)cn2)cc1)NC[C@H](O)COc1ccc(-c2ccno2)cc1 [Example 36]
10,64.2 ± 8.1%,CC(C)(Cc1ccc(Oc2ccc(C(N)=O)nc2)cc1)NC[C@H](O)COc1ccccc1-c1nccs1.O=C(O)C(F)(F)F [Example 206]
11,71.8 ± 2.5%,CC(C)(Cc1ccc(Oc2ncccc2C(N)=O)cc1)NC[C@H](O)COc1ccccc1-c1ccon1.Cl [Example 89]
12,83.4 ± 7.2%,CC1(C)COC(c2ccccc2OC[C@@H](O)CNC(C)(C)Cc2ccc(Oc3ccc(C(N)=O)cn3)cc2)=N1 [Example 28]
13,12.1 n = 1%,CC(C)(Cc1ccc(Oc2ccc(C(N)=O)cn2)cc1)NC[C@H](O)COc1cc(Cl)ccc1-c1nnco1 [Example 31]
14,54.6 ± 8.2%,CC(C)(Cc1ccc(Oc2cccnc2C#N)cc1)NC[C@H](O)COc1ccccc1-n1cccc1.Cl [Example 268]
15,67.3 ± 3.5%,CC(C)(Cc1ccc(Oc2ccc(C(N)=O)cc2Cl)cc1)NC[C@H](O)COc1ccccc1-c1cccs1.O=C(O)C(F)(F)F [Example 164]
16,21.4 n = 1%,CC(C)(Cc1ccc(Oc2ccc(S(C)(=O)=O)cc2)cc1)NC[C@H](O)COc1ccccc1-c1ccn[nH]1 [Example 133]

row,Emax (%) ± SEM,SMILES
1,70.1 ± 3.3%,CC(C)(Cc1ccc(Oc2ncccc2C#N)cc1)NC[C@H](O)COc1ccccc1-c1nccs1 [Example 52]
2,49.9 ± 3.4%,CC(C)(Cc1ccc(Oc2ncccn2)cc1)NC[C@H](O)COc1ccccc1-c1cscn1.Cl [Example 257]
3,64.8 ± 6.3%,CC(C)(Cc1ccc(Oc2ccc(C#N)cn2)cc1)NC[C@H](O)COc1ccccc1-c1ccon1.Cl [Example 12]
4,45.4 ± 3.4%,CC(C)(Cc1ccc(Oc2ccc(C#N)cn2)cc1)NC[C@H](O)COc1ccccc1-c1cscn1.Cl [Example 247]
5,38.9 ± 7.1%,CC(C)(Cc1ccc(Oc2ccc(C#N)cc2)cc1)NC[C@H](O)COc1ccccc1-c1ccno1.O=C(O)C(F)(F)F [Example 121]
6,36.0 ± 5.0%,CC(C)(Cc1ccc(Oc2ncccc2C(N)=O)cc1)NC[C@H](O)COc1ccccc1-n1ccnc1.Cl [Example 104]
7,<10%,COC(=O)c1ccc(Oc2ccc(CC(C)(C)NC[C@H](O)COc3ccccc3-c3ccnn3C)cc2)c(Cl)c1 [Example 137]
8,<10%,Cn1nccc1-c1ccccc1OC[C@@H](O)CNC(C)(C)Cc1ccc(Oc2ccc(C#N)cn2)cc1 [Example 3]
9,24.9 ± 9.3%,CC(C)(Cc1ccc(Oc2ncccc2C(N)=O)cc1)NC[C@H](O)COc1cccc(-c2ccnc(N)n2)c1 [Example 91]
10,69.5 ± 0.1%,CC(C)(Cc1ccc(Oc2ncccc2C(N)=O)cc1)NC[C@H](O)COc1ccccc1-c1ccno1.Cl [Example 73]
11,76.2 ± 8.3%,CC(C)(Cc1ccc(Oc2cccc(Cl)c2C#N)cc1)NC[C@H](O)COc1ccccc1-c1ccno1.O=C(O)C(F)(F)F [Example 217]
12,31.3 n = 1%,CC(C)(Cc1ccc(Oc2ccc(C(N)=O)cn2)cc1)NC[C@H](O)COc1ccccc1-c1ccn[nH]1 [Example 19]
13,49.5 ± 3.4%,CC(C)(Cc1ccc(Oc2ccc(S(C)(=O)=O)cc2)cc1)NC[C@H](O)COc1ccccc1-c1nccs1 [Example 130]
14,56.6 ± 4.2%,CC(C)(Cc1ccc(Oc2ccc(C(F)(F)F)cn2)cc1)NC[C@H](O)COc1ccccc1-c1nccs1.O=C(O)C(F)(F)F [Example 194]
15,67.4 ± 4.0%,CC(C)(Cc1ccc(Oc2ncccc2C(N)=O)cc1)NC[C@H](O)COc1ccccc1-c1cnco1.Cl [Example 101]
16,22.0 ± 5.3%,CC(C)(Cc1ccc(Oc2ccc(C(N)=O)cn2)cc1)NC[C@H](O)COc1ccccc1N1CCCC1=O [Example 22]
